Source: BindingDB's records for doi:10.1016/j.bioorg.2015.05.007 (Silesian University of Technology, 2015)
pIC50: −log10 of the molar value.

Target: T1, Chitin synthase 3 (Saccharomyces cerevisiae (strain ATCC 204508 / S288c), UniProt P29465)
T1 sequence (P29465 whole entry): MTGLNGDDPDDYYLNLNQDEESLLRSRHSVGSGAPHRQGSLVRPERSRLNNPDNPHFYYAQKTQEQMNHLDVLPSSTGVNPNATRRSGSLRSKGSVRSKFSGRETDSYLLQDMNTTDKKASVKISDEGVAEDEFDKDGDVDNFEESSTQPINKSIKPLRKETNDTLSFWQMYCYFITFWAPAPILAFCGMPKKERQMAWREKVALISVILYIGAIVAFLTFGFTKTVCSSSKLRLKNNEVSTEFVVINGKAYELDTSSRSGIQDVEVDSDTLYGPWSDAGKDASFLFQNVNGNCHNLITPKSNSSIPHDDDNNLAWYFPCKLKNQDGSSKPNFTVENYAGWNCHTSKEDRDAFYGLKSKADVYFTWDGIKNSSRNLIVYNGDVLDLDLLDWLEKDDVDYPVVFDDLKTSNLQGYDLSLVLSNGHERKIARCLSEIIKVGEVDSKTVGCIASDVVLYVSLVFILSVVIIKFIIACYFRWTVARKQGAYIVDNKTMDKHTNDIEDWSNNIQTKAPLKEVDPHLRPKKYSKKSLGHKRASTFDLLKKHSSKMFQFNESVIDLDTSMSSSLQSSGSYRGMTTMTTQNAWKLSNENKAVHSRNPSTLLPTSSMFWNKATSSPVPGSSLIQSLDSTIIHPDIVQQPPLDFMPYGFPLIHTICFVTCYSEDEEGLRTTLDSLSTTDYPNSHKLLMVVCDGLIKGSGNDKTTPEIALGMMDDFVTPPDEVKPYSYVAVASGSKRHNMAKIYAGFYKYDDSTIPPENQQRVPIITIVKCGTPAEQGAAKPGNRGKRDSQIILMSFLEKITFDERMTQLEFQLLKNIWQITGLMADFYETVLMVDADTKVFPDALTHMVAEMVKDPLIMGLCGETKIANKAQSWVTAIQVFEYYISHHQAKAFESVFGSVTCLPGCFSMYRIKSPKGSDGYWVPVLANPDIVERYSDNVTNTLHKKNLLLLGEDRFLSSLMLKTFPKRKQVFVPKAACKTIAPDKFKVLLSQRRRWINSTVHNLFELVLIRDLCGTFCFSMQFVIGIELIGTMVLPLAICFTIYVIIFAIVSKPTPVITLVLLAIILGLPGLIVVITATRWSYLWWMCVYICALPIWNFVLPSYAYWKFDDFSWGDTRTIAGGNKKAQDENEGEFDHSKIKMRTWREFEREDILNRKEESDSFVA
Experiment: Chitin Synthase Assays
Conditions: pH 7.5; 25 °C
Procedure: Assays were performed in 96-wells microtiter plate with flat bottom. To each well of the plate, 100 µL of WGA solution was added at 50 µg/mL. After incubation at room temperature for at least 16 h the WGA solution was removed by triple washing with distill water. Wells were then blocked by adding 300 µL of BSA blocking buffer (20 mg/mL, 50 mM Tris-HCl, pH 7.5) and incubated for 3 h at room temperature. Microtiter plates were stored until use at -20 °C in blocking buffer. Before usage plates were thawed at 25 °C and thoroughly emptied. The standard reaction mixture in total volume 100 µL contains: UDP-GlcNAc (2.0 mM), GlcNAc (40 mM), MgCl2 (5.0 mM) and digitonin (0.1% w/v) dissolved in pH 7.5 Tris-HCl buffer (50 mM) containing test compounds at a range of concentrations from 0 mM (control) to 3.0 mM. The enzymatic reactions were started by the addition of 0.2 mg/mL solution of trypsin (1-10 µL) and membrane preparation (5-20 µL). Usually four different concentrations of trypsin were te

| pIC50 | Structure (SMILES) |
| --- | --- |
| 3.10 | COC(=O)CCC(=O)NC[C@H]1O[C@@H](n2ccc(=O)[nH]c2=O)[C@@H](O)C1O (some centres not stated) [5'-(N-succinyl)-5'-amino-5'-deoxyuridine methyl ester (7)] |
| 2.52 | O=C(CCC(=O)NCC(=O)NC[C@H]1O[C@@H](n2ccc(=O)[nH]c2=O)[C@@H](O)C1O)NCC(=O)NC[C@H]1O[C@@H](n2ccc(=O)[nH]c2=O)[C@@H](O)C1O (some centres not stated) [Dimer 15 (15)] |
